Data: paper PMC7403980, “Anti-Inflammatory Effects of the Novel PIM Kinase Inhibitor KMU-470 in RAW 264.7 Cells through the TLR4-NF-κB-NLRP3 Pathway” (International Journal of Molecular Sciences, 2020)

How the values were obtained:
Blk (h) = target: T1, Blk (h) (Homo sapiens, UniProt P51451); experiment: Kinase profiling (Eurofins Cerep); type: biochemical; settings: ATP at Km
T1 construct: purchased Eurofins Cerep S.A. (kinase profiler service)
Protocol: (§1) To test the specificity of the novel PIM kinase inhibitor KMU-470, a kinase profiler service was conducted by Eurofins Cerep S.A. The screening was performed with 1 and 10 μM of compound and a concentration of ATP at the Km value for each individual kinase and kinase substrate according to Eurofin’s protocols.

Bmx (h) = target: T2, Bmx (h) (Homo sapiens, UniProt P51813); experiment: Kinase profiling (Eurofins Cerep); type: biochemical; settings: KMU-470 10 μM; ATP at Km
T2 construct: purchased Eurofins Cerep S.A. (kinase profiler service)
Protocol: as §1

Csrc (h) = target: T3, Csrc (h) (Homo sapiens, UniProt P12931); experiment: Kinase profiling (Eurofins Cerep); type: biochemical; settings: KMU-470 10 μM; ATP at Km
T3 construct: purchased Eurofins Cerep S.A. (kinase profiler service)
Protocol: as §1

Fgr (h) = target: T4, Fgr (h) (Homo sapiens, UniProt P09769); experiment: Kinase profiling (Eurofins Cerep); type: biochemical; settings: ATP at Km
T4 construct: purchased Eurofins Cerep S.A. (kinase profiler service)
T4 sequence (P09769 whole entry): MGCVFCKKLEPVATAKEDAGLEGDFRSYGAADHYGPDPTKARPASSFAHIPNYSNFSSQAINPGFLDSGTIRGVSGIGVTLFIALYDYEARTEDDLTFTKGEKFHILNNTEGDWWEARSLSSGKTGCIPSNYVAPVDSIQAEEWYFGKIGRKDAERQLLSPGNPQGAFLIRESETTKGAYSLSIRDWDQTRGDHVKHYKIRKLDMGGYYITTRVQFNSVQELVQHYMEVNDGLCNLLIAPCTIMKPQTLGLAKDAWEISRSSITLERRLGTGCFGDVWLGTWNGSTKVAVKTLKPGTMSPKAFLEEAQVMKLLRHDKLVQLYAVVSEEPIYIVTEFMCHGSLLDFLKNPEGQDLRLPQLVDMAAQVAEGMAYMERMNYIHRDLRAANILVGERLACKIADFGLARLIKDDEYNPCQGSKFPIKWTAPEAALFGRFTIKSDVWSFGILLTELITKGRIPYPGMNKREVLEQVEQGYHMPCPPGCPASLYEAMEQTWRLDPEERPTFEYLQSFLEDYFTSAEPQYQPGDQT
Protocol: as §1

Fyn (h) = target: T5, Fyn (h) (Homo sapiens, UniProt P06241); experiment: Kinase profiling (Eurofins Cerep); type: biochemical; settings: ATP at Km
T5 construct: purchased Eurofins Cerep S.A. (kinase profiler service)
Protocol: as §1

Hck (h) = target: T6, Hck (h) (Homo sapiens, UniProt P08631); experiment: Kinase profiling (Eurofins Cerep); type: biochemical; settings: KMU-470 10 μM; ATP at Km
T6 construct: purchased Eurofins Cerep S.A. (kinase profiler service)
Protocol: as §1

Itk (h) = target: T7, Itk (h) (Homo sapiens, UniProt Q08881); experiment: Kinase profiling (Eurofins Cerep); type: biochemical; settings: ATP at Km
T7 construct: purchased Eurofins Cerep S.A. (kinase profiler service)
T7 sequence (Q08881 whole entry): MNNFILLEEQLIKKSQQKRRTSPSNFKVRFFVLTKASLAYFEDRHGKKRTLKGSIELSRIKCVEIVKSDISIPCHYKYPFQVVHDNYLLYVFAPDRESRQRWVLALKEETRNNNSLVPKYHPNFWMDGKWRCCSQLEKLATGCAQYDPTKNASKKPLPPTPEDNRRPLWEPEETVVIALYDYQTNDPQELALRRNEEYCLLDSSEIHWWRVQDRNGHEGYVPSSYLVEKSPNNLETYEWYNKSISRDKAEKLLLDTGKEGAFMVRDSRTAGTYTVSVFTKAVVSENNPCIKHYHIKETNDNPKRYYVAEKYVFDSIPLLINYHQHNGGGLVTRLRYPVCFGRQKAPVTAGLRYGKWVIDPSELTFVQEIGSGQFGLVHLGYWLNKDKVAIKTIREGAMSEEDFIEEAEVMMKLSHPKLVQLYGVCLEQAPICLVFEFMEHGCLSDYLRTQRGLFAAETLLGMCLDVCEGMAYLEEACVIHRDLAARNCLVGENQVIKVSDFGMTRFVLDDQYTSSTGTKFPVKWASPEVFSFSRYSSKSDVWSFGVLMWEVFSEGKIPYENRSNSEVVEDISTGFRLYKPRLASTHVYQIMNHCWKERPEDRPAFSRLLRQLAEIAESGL
Protocol: as §1

JAK1 (h) = target: T8, JAK1 (h) (Homo sapiens, UniProt P23458); experiment: Kinase profiling (Eurofins Cerep); type: biochemical; settings: ATP at Km
T8 construct: purchased Eurofins Cerep S.A. (kinase profiler service)
T8 sequence (P23458 whole entry): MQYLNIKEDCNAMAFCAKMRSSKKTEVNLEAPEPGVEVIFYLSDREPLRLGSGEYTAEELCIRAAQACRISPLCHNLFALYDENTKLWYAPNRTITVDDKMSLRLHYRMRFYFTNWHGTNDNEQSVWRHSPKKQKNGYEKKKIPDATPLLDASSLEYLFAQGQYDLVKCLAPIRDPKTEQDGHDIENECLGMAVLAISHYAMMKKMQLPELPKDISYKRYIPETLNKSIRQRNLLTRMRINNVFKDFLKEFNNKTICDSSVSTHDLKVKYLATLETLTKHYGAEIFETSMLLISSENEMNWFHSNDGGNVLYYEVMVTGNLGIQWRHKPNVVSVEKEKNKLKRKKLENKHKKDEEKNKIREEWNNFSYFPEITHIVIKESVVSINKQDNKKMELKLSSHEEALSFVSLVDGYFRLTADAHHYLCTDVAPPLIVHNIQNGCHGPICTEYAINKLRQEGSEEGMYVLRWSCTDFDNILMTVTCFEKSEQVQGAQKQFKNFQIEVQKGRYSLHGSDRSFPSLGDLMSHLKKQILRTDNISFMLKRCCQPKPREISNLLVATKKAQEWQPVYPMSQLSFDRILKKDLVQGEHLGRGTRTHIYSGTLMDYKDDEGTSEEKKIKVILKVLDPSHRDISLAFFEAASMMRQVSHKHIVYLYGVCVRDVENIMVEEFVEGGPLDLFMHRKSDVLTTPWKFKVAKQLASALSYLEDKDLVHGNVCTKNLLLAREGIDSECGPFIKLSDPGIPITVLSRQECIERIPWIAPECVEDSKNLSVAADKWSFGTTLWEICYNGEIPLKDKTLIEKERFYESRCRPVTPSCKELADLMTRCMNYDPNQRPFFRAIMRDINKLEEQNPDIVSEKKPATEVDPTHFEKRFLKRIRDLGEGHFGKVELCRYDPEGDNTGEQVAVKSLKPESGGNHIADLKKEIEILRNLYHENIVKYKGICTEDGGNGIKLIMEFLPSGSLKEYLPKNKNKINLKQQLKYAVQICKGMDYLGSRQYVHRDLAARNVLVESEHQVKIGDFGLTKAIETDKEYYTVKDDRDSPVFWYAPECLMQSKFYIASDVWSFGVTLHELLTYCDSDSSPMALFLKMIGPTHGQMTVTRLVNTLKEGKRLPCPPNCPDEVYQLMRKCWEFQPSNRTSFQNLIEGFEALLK
Protocol: as §1

JNK1α1 (h) = target: T9, JNK1α1 (h) (Homo sapiens, UniProt P45983); experiment: Kinase profiling (Eurofins Cerep); type: biochemical; settings: KMU-470 10 μM; ATP at Km
T9 construct: purchased Eurofins Cerep S.A. (kinase profiler service)
Protocol: as §1

Lck (h) = target: T10, Lck (h) (Homo sapiens, UniProt P06239); experiment: Kinase profiling (Eurofins Cerep); type: biochemical; settings: ATP at Km
T10 construct: purchased Eurofins Cerep S.A. (kinase profiler service)
Protocol: as §1

Lyn (h) = target: T11, Lyn (h) (Homo sapiens, UniProt P07948); experiment: Kinase profiling (Eurofins Cerep); type: biochemical; settings: ATP at Km
T11 construct: purchased Eurofins Cerep S.A. (kinase profiler service)
T11 sequence (P07948 whole entry): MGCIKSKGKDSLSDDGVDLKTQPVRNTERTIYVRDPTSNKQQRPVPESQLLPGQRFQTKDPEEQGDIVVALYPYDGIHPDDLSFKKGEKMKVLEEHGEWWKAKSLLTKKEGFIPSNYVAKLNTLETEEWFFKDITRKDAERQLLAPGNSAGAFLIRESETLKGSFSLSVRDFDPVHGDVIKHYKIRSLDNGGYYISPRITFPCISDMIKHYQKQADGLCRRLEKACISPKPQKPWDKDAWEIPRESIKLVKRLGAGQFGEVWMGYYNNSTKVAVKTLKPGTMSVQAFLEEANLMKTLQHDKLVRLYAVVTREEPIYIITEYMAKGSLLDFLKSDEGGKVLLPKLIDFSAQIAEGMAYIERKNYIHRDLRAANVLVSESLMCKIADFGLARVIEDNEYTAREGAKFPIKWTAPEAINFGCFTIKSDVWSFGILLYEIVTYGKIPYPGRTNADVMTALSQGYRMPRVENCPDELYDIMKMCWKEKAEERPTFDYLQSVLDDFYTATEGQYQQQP
Protocol: as §1

MAPK1 (h) = target: T12, MAPK1 (h) (Homo sapiens, UniProt P27361); experiment: Kinase profiling (Eurofins Cerep); type: biochemical; settings: ATP at Km
T12 construct: purchased Eurofins Cerep S.A. (kinase profiler service)
Protocol: as §1

Pyk2 (h) = target: T13, Pyk2 (h) (Homo sapiens, UniProt Q14289); experiment: Kinase profiling (Eurofins Cerep); type: biochemical; settings: KMU-470 10 μM; ATP at Km
T13 construct: purchased Eurofins Cerep S.A. (kinase profiler service)
Protocol: as §1

SAPK2a (h) = target: T14, SAPK2a (h) (Homo sapiens, UniProt Q16539); experiment: Kinase profiling (Eurofins Cerep); type: biochemical; settings: KMU-470 10 μM; ATP at Km
T14 construct: purchased Eurofins Cerep S.A. (kinase profiler service)
Protocol: as §1

TYK2 (h) = target: T15, TYK2 (h) (Homo sapiens, UniProt P29597); experiment: Kinase profiling (Eurofins Cerep); type: biochemical; settings: ATP at Km
T15 construct: purchased Eurofins Cerep S.A. (kinase profiler service)
T15 sequence (P29597 whole entry): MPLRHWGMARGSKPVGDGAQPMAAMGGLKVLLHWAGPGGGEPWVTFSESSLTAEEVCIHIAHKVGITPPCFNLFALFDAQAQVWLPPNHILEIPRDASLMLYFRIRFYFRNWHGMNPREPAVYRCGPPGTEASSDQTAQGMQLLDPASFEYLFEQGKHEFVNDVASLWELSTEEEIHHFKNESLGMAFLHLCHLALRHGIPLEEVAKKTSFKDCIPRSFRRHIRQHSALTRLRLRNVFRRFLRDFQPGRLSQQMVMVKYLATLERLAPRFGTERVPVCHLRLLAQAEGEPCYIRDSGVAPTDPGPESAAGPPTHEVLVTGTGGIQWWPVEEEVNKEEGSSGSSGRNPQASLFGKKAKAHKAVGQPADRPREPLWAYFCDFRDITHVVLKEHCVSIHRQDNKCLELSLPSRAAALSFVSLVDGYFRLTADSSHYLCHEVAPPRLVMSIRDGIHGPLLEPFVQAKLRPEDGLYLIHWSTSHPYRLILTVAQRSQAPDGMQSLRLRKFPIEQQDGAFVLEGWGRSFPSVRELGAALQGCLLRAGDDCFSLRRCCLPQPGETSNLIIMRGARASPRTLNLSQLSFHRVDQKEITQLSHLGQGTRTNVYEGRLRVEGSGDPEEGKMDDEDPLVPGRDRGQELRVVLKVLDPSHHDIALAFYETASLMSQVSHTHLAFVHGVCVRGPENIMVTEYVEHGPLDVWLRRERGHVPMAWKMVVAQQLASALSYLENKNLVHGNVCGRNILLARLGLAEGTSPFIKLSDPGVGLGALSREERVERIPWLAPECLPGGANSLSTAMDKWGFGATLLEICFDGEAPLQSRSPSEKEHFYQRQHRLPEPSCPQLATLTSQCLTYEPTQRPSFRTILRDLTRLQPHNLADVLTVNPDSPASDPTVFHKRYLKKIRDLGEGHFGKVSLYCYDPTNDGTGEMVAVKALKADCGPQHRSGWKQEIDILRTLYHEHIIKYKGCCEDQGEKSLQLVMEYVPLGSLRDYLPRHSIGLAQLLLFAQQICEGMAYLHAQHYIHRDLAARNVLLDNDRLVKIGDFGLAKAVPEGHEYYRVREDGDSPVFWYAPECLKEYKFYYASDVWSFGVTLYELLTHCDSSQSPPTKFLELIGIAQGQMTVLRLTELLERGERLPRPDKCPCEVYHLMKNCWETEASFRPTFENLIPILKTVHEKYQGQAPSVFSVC
Protocol: as §1

Txk (h) = target: T16, Txk (h) (Homo sapiens, UniProt P42681); experiment: Kinase profiling (Eurofins Cerep); type: biochemical; settings: KMU-470 10 μM; ATP at Km
T16 construct: purchased Eurofins Cerep S.A. (kinase profiler service)
Protocol: as §1

Yes (h) = target: T17, Yes (h) (Homo sapiens, UniProt P07947); experiment: Kinase profiling (Eurofins Cerep); type: biochemical; settings: ATP at Km
T17 construct: purchased Eurofins Cerep S.A. (kinase profiler service)
T17 sequence (P07947 whole entry): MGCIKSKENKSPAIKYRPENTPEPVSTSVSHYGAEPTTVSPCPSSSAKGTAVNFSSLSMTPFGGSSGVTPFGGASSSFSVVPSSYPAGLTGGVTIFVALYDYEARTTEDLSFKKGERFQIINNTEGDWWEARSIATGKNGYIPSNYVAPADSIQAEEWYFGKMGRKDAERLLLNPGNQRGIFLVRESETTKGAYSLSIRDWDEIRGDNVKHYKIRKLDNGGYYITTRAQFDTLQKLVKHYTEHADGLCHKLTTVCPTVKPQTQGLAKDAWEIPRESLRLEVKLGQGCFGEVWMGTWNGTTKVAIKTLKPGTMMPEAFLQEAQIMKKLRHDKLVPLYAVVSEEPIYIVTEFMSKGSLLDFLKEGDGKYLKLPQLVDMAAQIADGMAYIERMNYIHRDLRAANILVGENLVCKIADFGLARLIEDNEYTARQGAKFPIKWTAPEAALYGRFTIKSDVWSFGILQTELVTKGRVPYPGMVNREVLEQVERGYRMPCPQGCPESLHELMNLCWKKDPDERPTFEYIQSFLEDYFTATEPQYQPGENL
Protocol: as §1

ZAP-70 (h) = target: T18, ZAP-70 (h) (Homo sapiens, UniProt P43403); experiment: Kinase profiling (Eurofins Cerep); type: biochemical; settings: KMU-470 10 μM; ATP at Km
T18 construct: purchased Eurofins Cerep S.A. (kinase profiler service)
Protocol: as §1

IKKα/β = experiment: LPS-induced phosphorylation of IKKα/β in RAW 264.7 cells (Western blot); type: cell-based, murine; settings: KMU-470 0.5 and 1 μM 30 min, LPS 50 ng/mL 6 h
Protocol: Figure 5 Effect of KMU-470 on LPS-induced phosphorylation of MAPKs/ IKKs/ NF-κB in RAW 264.7 cells. (A) Cells were pre-treated with 1μM of KMU-470 for 24 h and stimulated with LPS (50 ng/mL) at the indicated times. (C) Cells were pre-treated with 0.5 and 1μM of KMU-470 for 30 min prior to LPS treatment. Total proteins were isolated after 6 h exposure to LPS (50 ng/mL). The protein expression level of MAPKs, p-IKKα/β, and p-NF-κB were assessed using Western blot analyses. (B,D) The relative optical densities of MAPKs, p-IKKα/β, and p-NF-κB bands were analyzed by the Image-J program. *** p < 0.001.
RAW 264.7 cells were pre-treated with KMU-470 (0.5–1 μM/mL) for 24 h and stimulated with LPS (50 ng/mL) for 6 h. After stimulation, total cells were harvested, washed with PBS buffer, and then the total protein was extracted with a RIPA buffer (0.1 mM sodium orthovanadate, 137 mM NaCl, 15 mM EGTA, 0.1% Triton X-100, 25 mM MOPS, 15 mM MgCl2, 100 μM phenylmethylsulfonyl fluoride, and 20 μM leupeptin, adjusted to pH 7.2). […] Immunoreactive proteins were detected using the ELC Western blot detection system kit (Millipore). Signal intensity was measured using the Chemi Image documentation system (Fusion Fx7, VILBER LOUTMAT). Protein expression levels were quantified using the Image J program.

ASC = experiment: LPS-induced ASC protein expression in RAW 264.7 cells (Western blot); type: cell-based, murine; settings: KMU-470 0.1, 0.5, 1 μM 30 min, LPS 50 ng/mL 6 h
Protocol: Figure 6 Inhibitory effect of KMU-470 on LPS-induced up-regulation of pro-inflammatory cytokines and activation of NLRP3 inflammasome in RAW 264.7 cells. (A–C) Cells were treated with KMU-470 for 30 min and stimulated with LPS 50 ng/mL for 6 h. The levels of IL-1β, TNF-α, and IL-6 were determined using real time PCR. *** p < 0.001, *p < 0.05. (D) Cells were pre-treated with 0.1, 0.5, and 1 μM of KMU-470 for 30 min and treated with LPS 50 ng/mL for 6 h, respectively. Whole cell lysates were isolated and used to measure the protein expression levels of pro-IL-1β and β-actin by Western blot analysis. (E) Cells were pre-treated with 0.1, 0.5, and 1 μM of KMU-470 for 30 min and treated with LPS 50 ng/mL for 6 h, respectively. Whole cell lysates were isolated and used to measure the protein expression levels of […], ASC, pro-caspase-1, pro-IL-1β, and β-actin by Western blot analysis.
RAW 264.7 cells were pre-treated with KMU-470 (0.5–1 μM/mL) for 24 h and stimulated with LPS (50 ng/mL) for 6 h. […] Immunoreactive proteins were detected using the ELC Western blot detection system kit (Millipore). Signal intensity was measured using the Chemi Image documentation system (Fusion Fx7, VILBER LOUTMAT). Protein expression levels were quantified using the Image J program.

T1 sequence (P51451 whole entry): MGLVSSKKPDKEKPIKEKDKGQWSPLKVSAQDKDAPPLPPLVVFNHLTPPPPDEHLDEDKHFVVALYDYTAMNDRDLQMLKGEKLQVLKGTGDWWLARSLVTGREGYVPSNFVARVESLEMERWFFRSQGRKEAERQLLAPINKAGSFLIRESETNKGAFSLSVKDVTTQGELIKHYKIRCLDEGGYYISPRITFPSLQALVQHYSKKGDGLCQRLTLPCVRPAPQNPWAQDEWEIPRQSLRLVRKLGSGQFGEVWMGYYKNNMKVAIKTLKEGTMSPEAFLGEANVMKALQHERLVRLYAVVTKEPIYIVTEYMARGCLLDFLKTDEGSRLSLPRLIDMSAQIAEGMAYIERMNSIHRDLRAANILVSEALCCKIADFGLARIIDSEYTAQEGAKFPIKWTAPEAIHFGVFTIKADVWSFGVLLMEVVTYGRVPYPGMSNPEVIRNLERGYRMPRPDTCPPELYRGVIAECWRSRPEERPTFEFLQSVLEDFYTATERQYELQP

CN(C)CCNc1cncc(-c2ccc3c(c2)/C(=C/c2cnc[nH]2)C(=O)N3)n1 [KMU-470, (Z)-3-((1H-Imidazol-5-yl)methylene)-5-(6-((2-(dimethylamino)ethyl)amino)pyrazin-2-yl)indolin-2-one]
Activity (% Control) Blk (h) (Blk (h); KMU-470 1 μM): 53 % Control
Activity (% Control) Blk (h) (Blk (h); KMU-470 10 μM): 5 % Control
Activity (% Control) Bmx (h) (Bmx (h)): 47 % Control
Activity (% Control) Csrc (h) (Csrc (h)): 43 % Control
Activity (% Control) Fgr (h) (Fgr (h); KMU-470 1 μM): 42 % Control
Activity (% Control) Fgr (h) (Fgr (h); KMU-470 10 μM): 8 % Control
Activity (% Control) Fyn (h) (Fyn (h); KMU-470 1 μM): 97 % Control
Activity (% Control) Fyn (h) (Fyn (h); KMU-470 10 μM): 16 % Control
Activity (% Control) Hck (h) (Hck (h)): 37 % Control
Activity (% Control) Itk (h) (Itk (h); KMU-470 1 μM): 75 % Control
Activity (% Control) Itk (h) (Itk (h); KMU-470 10 μM): 21 % Control
Activity (% Control) JAK1 (h) (JAK1 (h); KMU-470 1 μM): 61 % Control
Activity (% Control) JAK1 (h) (JAK1 (h); KMU-470 10 μM): 20 % Control
Activity (% Control) JNK1α1 (h) (JNK1α1 (h)): 34 % Control
Activity (% Control) Lck (h) (Lck (h); KMU-470 1 μM): 41 % Control
Activity (% Control) Lck (h) (Lck (h); KMU-470 10 μM): 14 % Control
Activity (% Control) Lyn (h) (Lyn (h); KMU-470 1 μM): 30 % Control
Activity (% Control) Lyn (h) (Lyn (h); KMU-470 10 μM): 10 % Control
Activity (% Control) MAPK1 (h) (MAPK1 (h); KMU-470 1 μM): 6 % Control
Activity (% Control) MAPK1 (h) (MAPK1 (h); KMU-470 10 μM): −18 % Control
Activity (% Control) Pyk2 (h) (Pyk2 (h)): 41 % Control
Activity (% Control) SAPK2a (h) (SAPK2a (h)): 77 % Control
Activity (% Control) TYK2 (h) (TYK2 (h); KMU-470 1 μM): 54 % Control
Activity (% Control) TYK2 (h) (TYK2 (h); KMU-470 10 μM): 14 % Control
Activity (% Control) Txk (h) (Txk (h)): 50 % Control
Activity (% Control) Yes (h) (Yes (h); KMU-470 1 μM): 22 % Control
Activity (% Control) Yes (h) (Yes (h); KMU-470 10 μM): −3 % Control
Activity (% Control) ZAP-70 (h) (ZAP-70 (h)): 100 % Control
LPS-induced phosphorylation of IKKα/β (IKKα/β): significantly reduced
Expression of ASC protein compared with LPS alone group (ASC): marked decrease
